Assay results: ChEMBL document CHEMBL4000253 (Bioorg Med Chem, 2017)
Blank lines part the entries; values can stand above or below the compound they belong to. Active and inactive are the calls of the source. The rule behind the calls is not given here.

Key:
[1] = molecular target: T1, Mushroom tyrosinase (Agaricus bisporus, UniProt O42713+Q00024+C7FF04+C7FF05); experiment: Inhibition of mushroom tyrosinase using L-DOPA as substrate assessed as decrease in dopachrome formation preincubated for 10 mins followed by substrate addition by spectrophotometric method
[2] = molecular target: T2, Tyrosinase (Mus musculus) (UniProt P11344); experiment: Inhibition of tyrosinase in alpha-MSH-stimulated mouse B16F10 cells up to 50 uM preincubated for 48 hrs followed by L-DOPA addition
T2 sequence (whole entry): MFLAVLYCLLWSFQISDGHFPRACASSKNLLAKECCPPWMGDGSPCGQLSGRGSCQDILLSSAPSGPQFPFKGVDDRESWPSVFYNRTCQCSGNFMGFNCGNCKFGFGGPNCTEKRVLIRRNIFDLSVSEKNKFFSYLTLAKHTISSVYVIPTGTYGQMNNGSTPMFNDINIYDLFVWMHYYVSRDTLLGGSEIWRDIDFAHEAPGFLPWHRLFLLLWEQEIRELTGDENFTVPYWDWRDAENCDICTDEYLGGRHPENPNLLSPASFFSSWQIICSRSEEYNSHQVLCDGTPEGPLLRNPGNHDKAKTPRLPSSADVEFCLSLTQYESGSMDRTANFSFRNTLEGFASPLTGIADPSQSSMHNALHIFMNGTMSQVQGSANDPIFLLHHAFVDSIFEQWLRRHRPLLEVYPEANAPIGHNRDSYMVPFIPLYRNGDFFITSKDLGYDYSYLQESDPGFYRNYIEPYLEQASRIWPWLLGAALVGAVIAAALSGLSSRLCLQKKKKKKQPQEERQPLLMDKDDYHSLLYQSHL

[3] = molecular target: T2, Tyrosinase (Mus musculus); experiment: Inhibition of tyrosinase in alpha-MSH-stimulated mouse B16F10 cells assessed as decrease in melanin content up to 50 uM after 48 hrs
[4] = molecular target: T1, Mushroom tyrosinase; experiment: Competitive inhibition of mushroom tyrosinase using 0.3 to 1 mM L-DOPA as substrate assessed as decrease in dopachrome formation preincubated for 10 mins followed by substrate addition by Lineweaver-Burk plot analysis
[5] = test system: B16-F10; experiment: Cytotoxicity against mouse B16F10 cells assessed as decrease in cell viability at <50 uM after 48 hrs by MTT assay; assay type: cell-based; details: b16-f10, 48 h
[6] = test system: B16-F10; experiment: Cytotoxicity against mouse B16F10 cells assessed as decrease in cell viability at >50 uM after 48 hrs by MTT assay; assay type: cell-based; details: b16-f10, 48 h
[7] = molecular target: T3, Mushroom tyrosinase (Agaricus bisporus) (UniProt O42713+Q00024+C7FF04+C7FF05); experiment: Potency index, ratio of kojic acid IC50 to test compound IC50 for mushroom tyrosinase
[8] = molecular target: T2, Tyrosinase (Mus musculus); experiment: Inhibition of tyrosinase in alpha-MSH-stimulated mouse B16F10 cells preincubated for 48 hrs followed by L-DOPA addition
[9] = molecular target: T2, Tyrosinase (Mus musculus); experiment: Inhibition of tyrosinase in alpha-MSH-stimulated mouse B16F10 cells assessed as decrease in melanin content after 48 hrs
[10] = molecular target: T2, Tyrosinase (Mus musculus); experiment: Inhibition of tyrosinase in alpha-MSH-stimulated mouse B16F10 cells at 10 uM preincubated for 48 hrs followed by L-DOPA addition relative to control
[11] = molecular target: T2, Tyrosinase (Mus musculus); experiment: Inhibition of tyrosinase in alpha-MSH-stimulated mouse B16F10 cells at 25 uM preincubated for 48 hrs followed by L-DOPA addition relative to control
[12] = molecular target: T2, Tyrosinase (Mus musculus); experiment: Inhibition of tyrosinase in alpha-MSH-stimulated mouse B16F10 cells assessed as decrease in melanin content at 10 to 50 uM after 48 hrs
[13] = molecular target: T2, Tyrosinase (Mus musculus); experiment: Inhibition of tyrosinase in alpha-MSH-stimulated mouse B16F10 cells at 10 to 50 uM preincubated for 48 hrs followed by L-DOPA addition and subsequent incubation in dark measured after 1 hr by zymographic method
[14] = molecular target: T3, Mushroom tyrosinase (Agaricus bisporus); experiment: Uncompetitive inhibition of mushroom tyrosinase using 0.3 to 1 mM L-DOPA as substrate assessed as decrease in dopachrome formation preincubated for 10 mins followed by substrate addition by Lineweaver-Burk plot analysis
[15] = molecular target: T2, Tyrosinase (Mus musculus); experiment: Inhibition of tyrosinase in alpha-MSH-stimulated mouse B16F10 cells assessed as residual activity at 10 uM preincubated for 48 hrs followed by L-DOPA addition relative to control
[16] = molecular target: T2, Tyrosinase (Mus musculus); experiment: Inhibition of tyrosinase in alpha-MSH-stimulated mouse B16F10 cells assessed as residual activity at 25 uM preincubated for 48 hrs followed by L-DOPA addition relative to control
[17] = molecular target: T2, Tyrosinase (Mus musculus); experiment: Inhibition of tyrosinase in alpha-MSH-stimulated mouse B16F10 cells assessed as residual activity at 50 uM preincubated for 48 hrs followed by L-DOPA addition relative to control

- IC50 [1]: > 1000 µM
Structure (SMILES): O=c1oc2cc(O)ccc2cc1-c1cccs1

- IC50 [1]: 0.19 µM
- inhibition [2]: inactive
- inhibition [3]: inactive
Structure (SMILES): O=c1oc2cc(O)cc(O)c2cc1-c1ccsc1

- IC50 [1]: 31.8 µM
Structure (SMILES): O=c1oc2cc(O)ccc2cc1-c1cc(Br)cs1

- IC50 [1]: > 1000 µM
Structure (SMILES): O=c1oc2c(O)cccc2cc1-c1cc(Br)cs1

- IC50 [1]: 408.37 µM
Structure (SMILES): O=c1oc2cc(O)cc(O)c2cc1-c1ccccc1

- IC50 [1]: 0.15 µM
- Ki [4]: 0.24 µM
- Ratio IC50 [7]: 120
- inhibition [2]: inactive
- inhibition [3]: inactive
Structure (SMILES): O=c1oc2cc(O)cc(O)c2cc1-c1cccs1
- Activity [5]: Non-Toxic
- Activity [6]: Toxic

- IC50 [1]: > 1000 µM
Structure (SMILES): COc1ccc2oc(=O)c(-c3cccs3)cc2c1

- IC50 [1]: 259.03 µM
Structure (SMILES): O=c1oc2c(O)c(O)ccc2cc1-c1cc(Br)cs1

- IC50 [1]: > 1000 µM
Structure (SMILES): O=c1oc2ccc(O)cc2cc1-c1cccs1

- IC50 [1]: > 1000 µM
Structure (SMILES): COc1ccc2oc(=O)c(-c3cc(Br)cs3)cc2c1

- IC50 [1]: 1.05 µM
- inhibition [8]: Dose-dependent effect
- inhibition [9]: Dose-dependent effect
- inhibition [10]: 18.1%
- inhibition [11]: 51.8%
- inhibition [12]: Active
- inhibition [13]: Active
Structure (SMILES): O=c1oc2cc(O)cc(O)c2cc1-c1ccc(Br)cc1

- IC50 [1]: 0.38 µM
- Kis [14]: 0.128 µM
- Ratio IC50 [7]: 50
- inhibition [8]: Dose-dependent effect
- inhibition [9]: Dose-dependent effect
- Activity [15]: 94.3%
- Activity [16]: 78.5%
- Activity [17]: 27.7%
- inhibition [12]: Active
Structure (SMILES): O=c1oc2cc(O)cc(O)c2cc1-c1cc(Br)cs1
- Activity [5]: Non-Toxic
- Activity [6]: Toxic
